Test results from patent US7794972B2, “Benzoate-and anthranilate-inducible promoters” (priority 2002, dated 2010).
“Also recorded” adds a separate entry of the source.

Columns and labels:
Type in all cases: cell-based, Pseudomonas fluorescens
[1] = tested on: Pant-Pben tandem promoter; assay: Pant-Pben tandem promoter reporter gene induction (lacZ); details: for induction of the Pant-Pben tandem promoter: P. fluorescens
Experimental: (§1) Cell growth for induction: Strains of interest were grown overnight (at 30° C. with shaking at 250 rpm) in 1×M9 minimal salts medium (diluted from a 5× preparation purchased from Fisher Scientific, Pittsburgh, Pa.) supplemented with 0.5% or 1% (w/v) glucose, 1 mM MgSO4, and trace elements (for trace elements, the present examples used a solution containing salts of sodium, magnesium, manganese, iron, and cobalt, all at less than 0.5 mg/mL final concentration). Strains were then subcultured 1:4 in the same medium to a volume of 10 or 20 mL and then induced with 0-10 mM concentrations of anthranilate or benzoate, as indicated.
(§2) Strains of interest were grown overnight at 30° C. in 1×M9 medium supplemented with 0.5% or 1% (w/v) glucose, 1 mM MgSO4, and 5L/L trace elements (as described above), and optionally tetracycline at 15 ug/mL. These were then subcultured 1:4 or 1:5 in the same medium and then induced with indicated concentrations of anthranilate, benzoate, or other inducer, for a desired amount of time (e.g., for 2, 4, 6, 8, 12, or 24 hours, or overnight). Samples were taken at indicated times and those samples were assayed for reporter gene activity. Results are reported at time points taken at a given number of hours post-induction; time points are indicated by either a numeral for the number of hours, and in some cases this number is immediately preceded by the letter “I” indicating post-induction.
(§3) We prepared enough of the following assay medium to provide for each sample well of a 96-well plate (i.e. for all those wells used, with at least one well being used for each time point measured during the reaction course for each sample): 152 μL Z buffer (0.06M Na2HPO4.7H2O, 0.04M NaH2PO4.H2O, 0.01M KCl, 0.001M MgSO4.7H2O)+8 μL 1M β-mercaptoethanol. For each 900 μL of the resulting mix, we added one drop of 0.1%SDS and two drops of CHCl3, mixed (using a vortex-type mixer), and then added 144 μL thereof to each well. 16 μL of cells were then added to each well and the plate sealed with a plastic plate sealer. The plate was then mixed (by vortex) for 10 seconds, and then equilibrated to incubation temperature (room temperature) for 5 minutes. 50 μL 4 mg/mL ONPG was then added. When a significant yellow color developed, 90 μL stop solution (1M Na2CO3) was added and the reaction time recorded. The resulting color intensity for each sample was then read at A420 and A550. In addition, the cell density of each culture providing the 16 μL of cells used in each sample was read at A600. Miller Units were calculated as follows: • 1000 * ((A420−(1.75*A550))/(time(in minutes) *0.1 * A600)). Alkaline Phosphatase Assas
However, unlike the catabolite-repressed Pben promoter, the activity of the Pant promoter was not inhibited during fermentation A fusion of these two promoters was created by linking them together, as shown in SEQ ID NO:3, i.e. by cloning a fragment antR and Pant, upstream of the Pben278 promoter fused to lacZ.

[2] = tested on: Pben promoter (Pben509, Pben278); assay: Benzoate promoter (Pben) reporter gene induction (lacZ β-galactosidase / phoA alkaline phosphatase); details: for induction of the benzoate promoter (Pben509, Pben278): P. fluorescens MB101, reporter gene lacZ or phoA
Experimental: as §1, §2, §3
(§4) For this assay we prepared SIGMA FAST (p-nitrophenyl phosphate (PNPP) substrate, from Sigma-Aldrich Corp., St. Louis, Mo.) by adding one of each tablet provided by the manufacturer (one table each PNPP and Tris; stored at −20° C.) to 20 mL ddH2O, giving a final concentration of 1 mg/mL PNPP and 0.2M Tris. At each time point, for each sample, 50 μL SIGMA FAST substrate was combined with 5 μL of cells. The result was then incubated at room temperature for 30 minutes. The resulting color intensity for each sample was then read at A410. In addition, the cell density of each culture providing the 5 μL of cells used in each tested sample was read at A600 (i.e. the cell cultures were read in a 96 well plate). The value of A410/(0.1 * A600) was then calculated to express alkaline phosphatase activity/cell.
Benzoate-inducible promoter activity was tested by fusing the DNA fragment containing the putative promoter sequence of Pben509, or of Pben278 (described below), upstream of an easily assayable reporter gene (i.e. either lacZ, which encodes β-galactosidase and was used as the chief reporter gene, orphoA). The resulting plasmid was transformed into P. fluorescens MB101. […]

[3] = tested on: Pant promoter (Pant713, antR/Pant); assay: Anthranilate promoter (Pant) reporter gene induction (lacZ / phoA); details: for induction of the anthranilate promoter: P. fluorescens, reporter gene lacZ or phoA
Experimental: as §1, §2, §3, §4
Anthranilate, like benzoate, is an inexpensive low toxic compound that can be utilized by P. fluorescens, making it an ideal compound to investigate as an inducer. […]. […] Expansion of the promoter clone to include the transcriptional activator gene 5′ of the antA open reading frame (ORF) increased expression levels of the lacZ fusion. […]

Row | Molecule | induction of the Pant-Pben tandem promoter [1] | induction of the benzoate promoter (Pben509, Pben278) [2] | induction of the anthranilate promoter [3] | also measured
1 | O=C(O)c1ccccc1 [benzoic acid] | inducible | inducible | – | –
2 | Oc1ccccc1O [catechol] | – | fail to induce | – | –
3 | Nc1ccc(Cl)cc1C(=O)O [5-chloro-anthranilate] | – | – | inducible | –
4 | Nc1ccccc1C(=O)O [anthranilic acid] | inducible | – | inducible | –
5 | Nc1c(Cl)cccc1C(=O)O [3-chloro-anthranilate] | – | – | inducible | –
6 | O=C(O)/C=C\C=C/C(=O)O [cis, cis-muconate] | – | fail to induce | – | –
7 | Nc1cc(Cl)ccc1C(=O)O [4-chloro-anthranilate] | – | – | inducible | –
8 | Cc1ccccc1C(=O)O [o-toluate] | induce this promoter as well as does anthranilate | – | induce this promoter as well as does anthranilate | –
9 | Nc1cccc(Cl)c1C(=O)O [6-chloro-anthranilate, 6-chloroanthranilate] | – | – | inducible | –
10 | Cc1cccc(C(=O)O)c1 [m-toluic acid] | – | inducible | – | –
11 | Nc1ccccc1C(=O)[O-].[Na+] [sodium anthranilate] | inducible | – | inducible | strength of the tandem antR/Pant-Pben278 construct upon induction, compared with component promoter alone ([1]; lacZ fusion, in the presence of glucose): improved
12 | O=C([O-])c1ccccc1.[Na+] [sodium benzoate] | – | inducible; also recorded: show β-galactosidase or alkaline phosphatase activity | – | induction of the benzoate promoter (Pben509, Pben278) ([2]; listed as benzoate): benzoate was indeed the inducer for Pben; induction of expression of exogenous genes, benzoate promoter ([2]; induced with 5 mM sodium benzoate): about 250 fold
13 | Pant promoter with multi-copy antR: anthranilate-inducible promoter of P. fluorescens with the AntR activator coding sequence, a1-c1395 of SEQ ID NO:13 (nucleic acid, Construct containing the pDOW1057 Pant-Pben tandem promoter) DNA: AGCTTGCATGCCTGCAGGTTTAAACAGTCGACTCTAGACTTAATTAACTATCGCAGGCAAGCCAGCTCCCACAGATTGTTTTTCATCCAGTTCAAGTAATGCGCAGGCGCTTGCGCTGCAATGTCTGGCTGGGCGACTCATCGAACAGCTTGCGGTACTCCGCCGAAAACCGCCCCAAATGCGTAAACCCCCAACCCAGGGCGATTTCAGAGATGGTGCGGATCGAGCCCTGCTCCAGAATTTCTTGGCGCACCGCCCCCAACCGATGCTTCTTCAAATACGACATGGGCGACAGTGCGAAGTACTTGCGAAACGCATCGAACAGTTTGAAACGCGACACGCCCGCCGCCGCTTCCAGGTCTTCCAGGTGCAGCGCTTCACGGGCGTTGTCGTGGATAAATTGCCGCGCGCGGATCAGGTAGTGCGGCAGTTTCACCCCCAGCACGTCGCGCAGTTCTTCGGAGTAGTTATTCGGTTGGGCCAGGATCAGGCCCTTGATCAGCGAGCTTTCCAGGTCGCGAGTAAACGCCGCCTGCTCGTACAGTTCGCTGCTGCGCTCCAGTTCGGCGATGAAATAACGCGCCATGCGCCACCACGAAGCCGGTGCTCCGTCCACAGCATCCATCACCGACTCAAAGCGCAGCGGCGCATCAATGGGCCGTTGCAGCAAACCTTCCAGCGACTCGCTCATCGCCGCACGGGTGATTACCACCTGCAACTTGCGGCAGTCACCGGAAATCGCCAGCACCTGATGCTCATTGGGCGAAATGATCACGCCTTGGTCGCGGTTGGAACTGAGACGTTCACCGTTCTTGCTCAGCTCCTGCTCGCCCACCAGTGGCAGGCTCAAGCTGTAGCTGCTGAAGTGCTCGGCGTCTTCGATGTCGATGGTCACATCAGTGCCGTACTCGATCACGCCCAGGGTGGTGGCGCGGGATTTGAACACGTTGGCGCTGTGGTGAAAGCGCAGGCGCTCGGGGGTTGCCGTCGCCAGGCGATGGGGCCCGCAGATGCCGGACATCCAGCTGCGCGCGCCTTCCAGGTCGAAGCGTTGAATATGAATATCGCGTGTCTGACTAGTCATCAGGGTGCACCCACGGCGGTTAGGCGTTTGCGCGCTCTGACGGCGCGTCGTTGAACCTCGACAGCAAGTTCCAGGCCACGCCAGTGCAGTTCTCACTGGGTGGATAGCAACGGTCGACTATGTGGATAAACCCCAGAGTTTTGCGACCATCGCCCGCCATCACAGTAGCGCATGCCGTCACCGGCGCGCACCGTCATGGGTATTTGCCGCCCAACTTTGCGGCCTACGTTCCCCCATTAAGCGGATAGCCCGCCACCGCATCGCAGCCGCTTAATGGCTCACCGTTTAGCCATGATCAAAAGGTGCCTCCC | – | – | – | relative strength of promoter versus Pben278 promoter ([3]; Pant with multi-copy antR): approximately ⅕
